How the values were obtained:
jimsonweed = experiment: Preemergent control of plant species; assay type: in vivo, Datura stramonium; conditions: Datura stramonium, pre-emergence, 336 h; 0.25 lb/acre; read-out: percent preemergent control
Method: (§1) The seeds of various species of plants were planted in beds of good agricultural soil in a greenhouse. A number of compositions of the present invention, generally in the nature of an aqueous emulsion, were applied at rates listed in the table so as to deposit a predetermined amount of active ingredients uniformly throughout the surface of the bed. Another seed bed was treated only with water to serve as a control. After treatment the seed beds were maintained for two weeks under greenhouse conditions conducive for good plant growth and watered as necessary. Control refers to the reduction in growth compared to the observed results of the same untreated species.

sugar beet = experiment: Preemergent control of plant species; assay type: in vivo, Beta saccharifera; conditions: Beta vulgaris, pre-emergence, 336 h; 0.25 lb/acre; read-out: percent preemergent control
Method: as §1

yellow foxtail = experiment: Preemergent control of plant species; assay type: in vivo, Setaria lutescens; conditions: Setaria, pre-emergence, 336 h; 0.25 lb/acre; read-out: percent preemergent control
Method: as §1

[1] = tested on: nitrification of ammonium nitrogen; experiment: Suppression of nitrification of ammonium nitrogen in soil; conditions: 27° C.
Method: A sufficient volume of water was added to 20 g of the soil in a wide-mouth, screw-cap, 4-ounce, glass bottle, such that the moisture content of the mixture was made equal to the 1/3 bar tension value for that soil. The mixture was thoroughly mixed before sealing. […] Acetone slows the rate of soil nitrification and its concentration must be carefully controlled. Single samples of each test chemical were incubated for two weeks at 27° C.
The experiment comprised the following types of samples:
The soil samples were analyzed as follows: Sufficient ammonium sulfate extracting solution was added to the sample, such that the total volume of added water was 50 ml (included water added during sample preparation). The capped mixture was shaken 10 minutes to solubilize nitrate and the soil particulates were allowed to settle. The nitrate concentration in the water phase was determined with a nitrate-specific ion electrode such as Orion Model 93-07.
The non-nitrate nitrogen remaining (% NH4 -N remaining) in the soil after two weeks (performance value) was calculated as follows: [formula]

velvetleaf = experiment: Preemergent control of plant species; assay type: in vivo, Abutilon theophrasti; conditions: Abutilon theophrasti, pre-emergence, 336 h; 0.25 lb/acre; read-out: percent preemergent control
Method: as §1

wild oats = experiment: Preemergent control of plant species; assay type: in vivo; conditions: Avena fatua, pre-emergence, 336 h; 0.25 lb/acre; read-out: percent preemergent control
Method: as §1

cotton = experiment: Preemergent control of plant species; assay type: in vivo, Gossypium spp.; conditions: Gossypium hirsutum, pre-emergence, 336 h; 0.25 lb/acre; read-out: percent preemergent control
Method: as §1

rice = experiment: Preemergent control of plant species; assay type: in vivo, Oryza sativa; conditions: Oryza sativa, pre-emergence, 336 h; 0.25 lb/acre; read-out: percent preemergent control
Method: as §1

barnyardgrass = experiment: Preemergent control of plant species; assay type: in vivo, Echinochloa crusgalli; conditions: Echinochloa crus-galli, pre-emergence, 336 h; 0.25 lb/acre; read-out: percent preemergent control
Method: as §1

corn = experiment: Preemergent control of plant species; assay type: in vivo, Zea mays; conditions: Zea mays, pre-emergence, 336 h; 0.25 lb/acre; read-out: percent preemergent control
Method: as §1

annual morning glory = experiment: Preemergent control of plant species; assay type: in vivo, Ipomoea spp.; conditions: Ipomoea, pre-emergence, 336 h; 0.25 lb/acre; read-out: percent preemergent control
Method: as §1

yellow nutsedge = experiment: Preemergent control of plant species; assay type: in vivo, Cyperus esculentus; conditions: Cyperus, pre-emergence, 336 h; 0.25 lb/acre; read-out: percent preemergent control
Method: as §1

wheat = experiment: Preemergent control of plant species; assay type: in vivo, Triticum aestivum; conditions: Triticum aestivum, pre-emergence, 336 h; 0.25 lb/acre; read-out: percent preemergent control
Method: as §1

rape = experiment: Preemergent control of plant species; assay type: in vivo, Brassica napus; conditions: Brassica napus, pre-emergence, 336 h; 0.25 lb/acre; read-out: percent preemergent control
Method: as §1

johnson grass = experiment: Preemergent control of plant species; assay type: in vivo, Sorghum halepense; conditions: Sorghum halepense, pre-emergence, 336 h; 0.25 lb/acre; read-out: percent preemergent control
Method: as §1

soybean = experiment: Preemergent control of plant species; assay type: in vivo, Glycine max.; conditions: Glycine max, pre-emergence, 336 h; 0.25 lb/acre; read-out: percent preemergent control
Method: as §1

Row | SMILES | pest or weed control at 280.212 g/ha (jimsonweed) [%] | plant injury at 280.212 g/ha (sugar beet) [%] | pest or weed control at 280.212 g/ha (yellow foxtail) [%] | % NH4-N Remaining After 2 Weeks Incubation ([1]; 0.06 ppm) [%] | % NH4-N Remaining After 2 Weeks Incubation ([1]; 0.25 ppm) [%] | % NH4-N Remaining After 2 Weeks Incubation ([1]; 1 ppm) [%] | % NH4-N Remaining After 2 Weeks Incubation ([1]; 4 ppm) [%] | pest or weed control at 280.212 g/ha (velvetleaf) [%] | pest or weed control at 280.212 g/ha (wild oats) [%] | plant injury at 280.212 g/ha (cotton) [%] | plant injury at 280.212 g/ha (rice) [%] | pest or weed control at 280.212 g/ha (barnyardgrass) [%] | plant injury at 280.212 g/ha (corn) [%] | pest or weed control at 280.212 g/ha (annual morning glory) [%] | pest or weed control at 280.212 g/ha (yellow nutsedge) [%] | plant injury at 280.212 g/ha (wheat) [%] | plant injury at 280.212 g/ha (rape) [%] | pest or weed control at 280.212 g/ha (johnson grass) [%] | plant injury at 280.212 g/ha (soybean) [%]
1 | Cc1cn2nc(S(=O)(=O)Nc3c(Cl)cccc3Cl)nc2nc1C [Compound 205] | 100 | 100 | 0 | 32 | 38 | 76 | 81 | 100 | 50 | 100 | 50 | 50 | 95 | 75 | 70 | 0 | 100 | 0 | 90
2 | Cc1cnc2nc(S(=O)(=O)Nc3c(Cl)cccc3Cl)nn2c1 [Compound 192] | 100 | 100 | 70 | 21 | 48 | 74 | 86 | 100 | 0 | 95 | 0 | 0 | 10 | 97 | 90 | 0 | 100 | 0 | 90
3 | Cc1ccn2nc(S(=O)(=O)Nc3c(C)cccc3Cl)nc2n1 [Compound 144] | 100 | 100 | 100 | 16 | 43 | 63 | 92 | 100 | 70 | 100 | 40 | 80 | 70 | 95 | 100 | 0 | 100 | 100 | 60
4 | Cc1cc(C)n2nc(S(=O)(=O)Nc3c(F)cccc3C(=O)OC(C)(C)C)nc2n1 [Compound 56] | 0 | 100 | 20 | 0 | 37 | 59 | 78 | 50 | 0 | 0 | 0 | 0 | 30 | 90 | 70 | 0 | 100 | 0 | 0

— patent US4740233A, “Substituted 1,2,4-triazolo[1,5-a]-pyrimidine-2-sulfonamides and compositions and methods of controlling undesired vegetation and suppressing the nitrification of ammonium nitrogen in soil” (The Dow Chemical Company, priority 1986, dated 1988)
